Experimental data: patent US20210100872A1, “Pharmacological Formulation Comprising Cyclo (HIS-PRO) As Effective Ingredient For Preventing Or Treating Diabetes Mellitus” (Novmetapharma Co., Ltd., priority 2017, published 2021)

Columns and labels:
Format in all cases: in vivo, human
[1] = Change in body weight, 12-week clinical trial
Experimental: (§1) We conducted a clinical trial designed as randomized, placebo-controlled, double-blind, and two-way crossover on drug interaction in patients with type 2 diabetes mellitus. The clinical trial was conducted for 149 patients over a total of 16 weeks, in which the screening period was 2 weeks, the treatment period was 12 weeks, and the period of the evaluation of safety and follow-up was 2 weeks.
(§2) In the screening stage, 64 subjects were selected from 149 participants, and the subjects who met the selection criteria were fasted for 2 hours before and after breakfast each day and subjected to a 2-week evaluation process of measuring and recording blood glucose levels. In the treatment stage, capsules containing placebo or CHP with different doses were randomly administered to 64 selected subjects once a day for 12 consecutive weeks.
(§3) In the above experiment, a capsule containing CHP (cyclo-hispro) with a different dose or a placebo corresponding thereto was used, and each subject received a two-week dose (18 capsules =14 +4) at one visit and was instructed to take 1 capsule before bedtime every day. In this case, the anti-diabetic drugs and other prescribed drugs currently being used were continuously taken. […]

[2] = Body mass index (BMI), 12-week clinical trial; details: capsule once a day, From Week 0 to Week 12
Experimental: as §1, §2
(§4) In the above experiment, a capsule containing CHP (cyclo-hispro) with a different dose or a placebo corresponding thereto was used, and each subject received a two-week dose (18 capsules =14 +4) at one visit and was instructed to take 1 capsule before bedtime every day. In this case, the anti-diabetic drugs and other prescribed drugs currently being used were continuously taken. Each subject was assigned at the same rate as follows and administered with a placebo or a compound with a different dose, respectively. • Administration Group A: 3 mg of CHP+23 mg of zinc—16 subjects • Administration Group B: 9 mg of CHP+23 mg of zinc—16 subjects • Administration Group C: 15 mg of CHP+23 mg of zinc—16 subjects • Administration Group D: placebo (control)—16 subjects
The present inventors confirmed the improvement of body mass index (BMI) and the improvement of leptin resistance, and the results are shown in Tables 3 and 4.

[3] = system: patients with type 2 diabetes mellitus; test: Plasma leptin level (leptin resistance), 12-week clinical trial; details: Administration Group A: 3 mg of CHP+23 mg of zinc, capsule once a day; From Week 0 to Week 12
Experimental: as §1, §2, §3

[4] = system: patients with type 2 diabetes mellitus; test: Change in concentration of HbA1c, 12-week clinical trial; details: for concentration of HbA1c, Average / concentration of HbA1c, Change Value, Average: capsule once a day; for concentration of HbA1c, Change Value, Average: From Week 0 to Week 12
Experimental: as §1, §2, §4
The present inventors observed the change in concentration of HbA1c during the 12-week dosing period. Since the blood glucose level measured at one time point can change due to various factors, the change in glycated hemoglobin (HbA1c) was checked for the purpose of determining the pattern of long-term glycemic control, and the results are shown in Table 1 and FIG. 1.

[5] = Administration Group A: 3 mg of CHP+23 mg of zinc
[6] = Administration Group B: 9 mg of CHP+23 mg of zinc
[7] = Administration Group C: 15 mg of CHP+23 mg of zinc

O=C1NC(Cc2c[nH]cn2)C(=O)N2CCCC12 (centres unmarked) [CHP, cyclo(his-pro)]
body weight, Change Value, Average ([1]; Administration Group A: 3 mg of CHP+23 mg of zinc, capsule once a day, From Week 0 to Week 12): -0.73 kg
weight gain compared to the control ([1]; all patient groups receiving CHP (3, 9, 15 mg+23 mg of zinc), 12 weeks): less than the control, or the body weight was reduced
body mass index (BMI), Change Value, Average [2, 5]: −0.27 kg/m^2
body mass index (BMI), Change Value, Average [2, 6]: 0.16 kg/m^2
body mass index (BMI), Change Value, Average [2, 7]: −0.28 kg/m^2
plasma leptin level, Change Value, Average [3]: 0.59
concentration of HbA1c, Average ([4]; Administration Group A: 3 mg of CHP+23 mg of zinc, Baseline (Week 0)): 8.25%
concentration of HbA1c, Change Value, Average [4, 5]: −0.21%
concentration of HbA1c, Average ([4]; Administration Group B: 9 mg of CHP+23 mg of zinc, Baseline (Week 0)): 8.06%
concentration of HbA1c, Change Value, Average [4, 6]: −0.17%
concentration of HbA1c, Average ([4]; Administration Group C: 15 mg of CHP+23 mg of zinc, Baseline (Week 0)): 8.49%
concentration of HbA1c, Change Value, Average [4, 7]: −0.43%
concentration of HbA1c, Average ([4]; Administration Group C: 15 mg of CHP+23 mg of zinc, Week 12): 8.08%
level of HbA1c over time (FIG. 1) ([4]; Administration Group C: 15 mg of CHP+23 mg of zinc, week 0 to week 12): reduced consistently until week 8, and then there was little change in the level of HbA1c between week 8 and week 12
